As a reminder, the EC50 is the concentration giving half of the maximal effect.

For 14 compounds, EC50 results are on record in patent US20240083903A1, “ARYL ETHER COMPOUNDS AS TEAD MODULATORS” (Merck Sharp& Dohme LLC, priority 2021, published 2024).

In this assay the test system is TEAD Reporter-MCF7 cell line. Briefly: YAP/TEAD cellular activity assay: inhibition of TEAD-Luc activity in TEAD Reporter-MCF7 cell line. Format: cell-based, human. The following applies: Homo sapiens, MCF7, 24 h, TEAD Reporter-MCF7 cells, 24 hours incubation with compound, luciferase readout. Here is the method: YAP/TEAD Cellular Activity Assay
Quantitation of Compound Potency on the Inhibition of TEAD-Luc Activity in TEAD Reporter-MCF7 Cell Line.
The TEAD Reporter-MCF7 cell line containing the firefly luciferase gene under the control of TEAD responsive elements stably integrated into the human breast cancer cell line was purchased from BPS Bioscience (Cat #60618). The cells were cultured with complete culture medium ([…], 1 mM sodium pyruvate, 10% fetal bovine serum, 10 ng/mL insulin and 400 ug/mL G418 sulfate) prior to the assay. For the assay, the cells were harvested, resuspended in the complete culture medium without G418, and seeded into white solid bottom 384-well cell culture microplates in 25 uL with 10,000 cells per well. The plates were incubated at 37° C. in a CO2 incubator for 20-24 hours and the compounds were then transferred from Echo LDV plates directly into the 384-well white tissue culture plates with an Echo. The plates were incubated at 37° C. in a CO2 incubator for 24 hours and equal volume of ONE-Glo™ EX Luciferase reagent (Promega, Cat #E8150) was added. After mixing on a shaker at room temperature for 10 minutes, the luciferase activity was measured with an Envision. The percentage inhibition and EC50 values of compounds were calculated with Spotfire.
Required Materials • 1. TEAD reporter-MCF-7 Cells (BPS Bioscience, #60618) • 2. Complete Cell Culture Medium (without selection antibiotics) • EMEM 89% (ATCC, #30-2003) • FBS 10% (Hyclone, #SH30088.03) • 1% Non essential amino acids (Gibco, • 1 mM sodium pyruvate (Gibco, • Pen/Strep, 1% (Gibco, #15140-122) • 10 ng/mL insulin (Sigma, #10516) • 3. Complete Cell Culture Medium (with selection antibiotics) • EMEM 89% (ATCC, #30-2003) • F1% Non essential amino acids (Gibco, • 1 mM sodium pyruvate (Gibco, • BS 10% (Hyclone, #SH30088.03) • 10 ng/mL insulin (Sigma, #10516) • 400 ug/mL G418 sulfate (Agilent, #200049-21) • 4. Miscellaneous tissue culture equipment and reagents. • 5. White solid 384-well tissue culture plate (Greiner, Cat #781080) • 6. One Glo EX luciferase assay system (Promega, #E8150)
The following table tabulates the biological data disclosed for the current invention. The biological data was collected using the methodology described above. For each compound, TEAD-Luc EC50 values are listed in nanomolar (nM) concentration units.
On to `CNS(=O)(=O)c1ccc(Oc2ccc(C(F)(F)F)cc2)c(-c2cn3ccsc3n2)c1` [1-18, 3-(imidazo[2,1-b][1,3]thiazol-6-yl)-N-methyl-4-[4-(trifluoromethyl)phenoxy]benzene-1-sulfonamide], for which the EC50 came to 34.1 nM.
On to `CNS(=O)(=O)c1ccc(Oc2ccc(C(F)(F)F)cc2)c(-c2cnc3cccnc3c2)c1` [2-30, N-methyl-3-(1,5-naphthyridin-3-yl)-4-[4-(trifluoromethyl)phenoxy]benzene-1-sulfonamide], for which the EC50 was 675 nM.
As to `CNS(=O)(=O)c1ccc(Oc2ccc(C(F)(F)F)cc2)c(-c2ncc3cnccn23)c1` [1-7, 3-(imidazo[1,5-a]pyrazin-3-yl)-N-methyl-4-[4-(trifluoromethyl)phenoxy]benzene-1-sulfonamide], the EC50 was 5350 nM.
Turning to `CNS(=O)(=O)c1ccc(Oc2ccc(C(F)(F)F)cc2)c(-c2cnc3ccc(Cl)nn23)c1` [1-23, 3-(6-chloroimidazo[1,2-b]pyridazin-3-yl)-N-methyl-4-[4-(trifluoromethyl)phenoxy]benzene-1-sulfonamide], the EC50 was found to be 3340 nM.
On to `CNS(=O)(=O)c1ccc(Oc2ccc3c(c2)CCC3)c(-c2cn3c(n2)CCC3)c1` [4-4, 4-[(2,3-dihydro-1H-inden-5-yl)oxy]-3-(6,7-dihydro-5H-pyrrolo[1,2-a]imidazol-2-yl)-N-methylbenzene-1-sulfonamide], for which the EC50 turned out to be 32.3 nM.
Consider `CNS(=O)(=O)c1ccc(Oc2ccc(C(F)(F)F)cc2)c(-c2nc3ncccn3n2)c1` [1-10, N-methyl-3-([1,2,4]triazolo[1,5-a]pyrimidin-2-yl)-4-[4-(trifluoromethyl)phenoxy]benzene-1-sulfonamide], for which the EC50 amounted to 454 nM.
The same measure for `CNS(=O)(=O)c1ccc(Oc2ccc(SC(F)(F)F)cc2)c(-c2cnn3c2CCC3)c1` [3-1, 3-(5,6-Dihydro-4H-pyrrolo[1,2-b]pyrazol-3-yl)-N-methyl-4-(4-((trifluoromethyl)thio)phenoxy)benzenesulfonamide]: 447 nM; for `CNS(=O)(=O)c1ccc(Oc2cc(C(F)(F)F)cc(C(F)(F)F)c2)c(-c2cnn3c2CCC3)c1` [3-2, 4-[3,5-bis(trifluoromethyl)phenoxy]-3-(5,6-dihydro-4H-pyrrolo[1,2-b]pyrazol-3-yl)-N-methylbenzene-1-sulfonamide]: 9140 nM.
Take `CNS(=O)(=O)c1ccc(Oc2ccc(C(F)(F)F)cc2)c(-c2ccc(OC)c3nc(C(F)(F)F)[nH]c23)c1` [2-3, 3-[4-methoxy-2-(trifluoromethyl)-1H-benzimidazol-7-yl]-N-methyl-4-[4-(trifluoromethyl)phenoxy]benzene-1-sulfonamide]: the EC50 turned out to be 4920 nM.
Consider `CCc1cccc(Oc2ccc(S(=O)(=O)NC)cc2-c2cn3c(n2)CCC3)c1` [4-10, 3-(6,7-dihydro-5H-pyrrolo [1,2-a]imidazol-2-yl)-4-(3-ethylphenoxy)-N-methylbenzene-1-sulfonamide], for which the EC50 was determined as 21.6 nM.
The same measure for `CNS(=O)(=O)c1ccc(Oc2ccc(F)c(F)c2)c(-c2cn3c(n2)CCC3)c1` [4-11, 4-(3,4-difluorophenoxy)-3-(6,7-dihydro-5H-pyrrolo[1,2-a]imidazol-2-yl)-N-methylbenzene-1-sulfonamide]: 206 nM; for `CNS(=O)(=O)c1ccc(Oc2ccc(C(F)(F)F)cc2)c(-c2cnc3c(N)cccn23)c1` [1-21, 3-(8-aminoimidazo[1,2-a]pyridin-3-yl)-N-methyl-4-[4-(trifluoromethyl)phenoxy]benzene-1-sulfonamide]: 9280 nM; for `CNS(=O)(=O)c1ccc(Oc2ccc(C(F)(F)F)cc2)c(-c2nc3cnccn3n2)c1` [1-15, N-methyl-3-([1,2,4]triazolo[1,5-a]pyrazin-2-yl)-4-[4-(trifluoromethyl)phenoxy]benzene-1-sulfonamide]: 540 nM.
The same measure for `CNS(=O)(=O)c1ccc(Oc2ccc(C(F)(F)F)cc2)c(-c2nc3n(c2C#N)CCNC3)c1` [1-17, 3-(3-cyano-5,6,7,8-tetrahydroimidazo[1,2-a]pyrazin-2-yl)-N-methyl-4-[4-(trifluoromethyl)phenoxy]benzene-1-sulfonamide]: 1070 nM.
